Experimental data reported in patent US20060234866A1, “Formulations with the capacity to increase the efficiency of plants to assimilate different mineral nutrients, especially iron, in normal conditions and in conditions of deficiency of potentially assimilable iron” (Inabonos, S.A., a Spanish joint venture company, priority 2005, published 2006).

Tested on: pepper plants
Assay: Iron assimilation and development of pepper plants cultivated in hydroponia
Assay type: in vivo
Description: Four different treatments are presented that are applied to peppers: • 1. The control received a nutritive solution containing different nutrients. • 2. The treatment AIA that received the same nutritive control solution was also treated with indol-acetic acid (natural auxin) at a dose of 10^−6 M. • 3. […] The treatment IND2 that received the same nutritive control solution was also treated with the composition of Example 1 at a dose of 10^−9 M. The pepper plants were cultivated in hydroponia.

[1] = dose 10^−6 M in nutritive solution

With O=C(O)Cc1c[nH]c2ccccc12 [AIA, indol-acetic acid] the “Assimilated Fe, leaves” value [1] was 0.335 mg plant^−1, the “Assimilated Fe, root” value [1] was 2.90 mg plant^−1 and the “Dry matter, leaves” value [1] was 4.04 g plant^−1. The “Dry matter, root” value [1] was 1.43 g plant^−1, the “Dry matter, stem” value [1] was 1.09 g plant^−1 and the “Assimilated Fe, leaves (% of control)” value (dose 10^−6 M, control = 100) was 103.4%. The “Assimilated Fe, root (% of control)” value (dose 10^−6 M, control = 100) was 109.8%, the “Dry matter, leaves (% of control)” value (dose 10^−6 M, control = 100) was 136% and the “Dry matter, root (% of control)” value (dose 10^−6 M, control = 100) was 130%. For the same compound, the “Dry matter, stem (% of control)” value (dose 10^−6 M, control = 100) was 138%, the “assimilation and translocation of iron (in words)” value (versus control) was “no significant effects” and the “biostimulant effect (in words)” value (versus control) was “presents a biostimulant effect”.
